Publication PMC10066365, “Nemacol is a small molecule inhibitor of C. elegans vesicular acetylcholine transporter with anthelmintic potential” (Nature Communications, 2023)
Where “and” joins values, the source holds several entries; their conditions need not be identical. Equal entries are not always repeated. Where two headings read alike, the source gives them in different places.

Tested on: C. elegans unc-17 mutants
[1] = unc-17 (e245), 15 µM, 60 min, adult worms, average of 3 biological repeats
[2] = unc-17 (e245), 30 µM, 60 min, adult worms, average of 3 biological repeats
[3] = unc-17 (e245), 60 µM, 60 min, adult worms, average of 3 biological repeats
[4] = unc-17 (e245), 15 µM, 60 min, single Bio Rep
[5] = unc-17 (e245), 30 µM, 60 min, single Bio Rep
[6] = unc-17 (e245), 60 µM, 60 min, single Bio Rep
[7] = unc-17 (e327), 15 µM, 60 min, single Bio Rep
[8] = unc-17 (e327), 30 µM, 60 min, single Bio Rep
[9] = unc-17 (e327), 60 µM, 60 min, single Bio Rep
[10] = unc-17 (e795), 15 µM, 60 min, average of 3 biological repeats
[11] = unc-17 (e795), 15 µM, young adult, average of 3 biological repeats
[12] = unc-17 (e795), 30 µM, young adult, average of 3 biological repeats
[13] = unc-17 (e795), 60 µM, young adult, average of 3 biological repeats
[14] = unc-17 (md414), 15 µM, 60 min, adult worms, average of 3 biological repeats
[15] = unc-17 (md414), 30 µM, 60 min, average of 3 biological repeats

Method: Significance was calculated using Fisher’s method (one-sided comparisons; see 'Methods'). […] Worms were incubated on the plates for 60 min.
Locomotor phenotype analyses were done in 24-well plates with 1 mL of MYOB substrate (27.5 g Trizma HCl, 12 g Trizma Base, 230 g bacto tryptone, 10 g NaCl, 0.4 g cholesterol (95%)) seeded with 25 µL of OP50 Escherichia coli on each well. Each compound was added to the MYOB substrate before pouring to achieve the desired final concentrations of 30 µM or 60 µM after diffusion through the media. Synchronized young adult worms are transferred into each well using a platinum wire pick. A Leica MZ75 stereomicroscope was used to visualize the movement of worms on the solid substrate. The specific dominant locomotor phenotype (i.e. ‘Punc’, ‘paralyzed’, ‘coiler’ or ‘wild-type locomotion’) was scored after the touch on the head with a platinum wire over a ~3–5 s of observation. […] Coiled animals were not scored as paralyzed despite sometimes not responding to light touch.

O=[N+]([O-])c1ccc(N2CCN(CC3CCCCC3)CC2)cc1 [Nemacol-1]
Fraction Coiled [1]: 0.83 | Fraction Jerky-Unc [1]: 0.17 | Fraction No Phenotype [1]: 0.00 | Fraction Parayzed [1]: 0.00 | Fraction Coiled [2]: 0.78 | Fraction Jerky-Unc [2]: 0.13 | Fraction No Phenotype [2]: 0.00 | Fraction Parayzed [2]: 0.09 | Fraction Coiled [3]: 0.80 | Fraction Jerky-Unc [3]: 0.0556 | Fraction No Phenotype [3]: 0.00 | Fraction Parayzed [3]: 0.15 | Fraction Coiled, Averages of 3 biological repeats (unc-17 (e245), 15 µM, 60 min): 0.78 | Fraction Jerky-Unc, Averages of 3 biological repeats (unc-17 (e245), 15 µM, 60 min): 0.19 | Fraction No Phenotype, Averages of 3 biological repeats (unc-17 (e245), 15 µM, 60 min): 0.00 | Fraction Parayzed, Averages of 3 biological repeats (unc-17 (e245), 15 µM, 60 min): 0.037 | C1 (loose coil) worm count [4]: 4 and 2 and 3 | C2 (tight coil) worm count [4]: 11 and 12 and 10 | Fraction Coiled [4]: 0.72 and 0.83 and 0.78 | Fraction Jerky-Unc [4]: 0.1667 and 0.2222 | Fraction No Phenotype [4]: 0.00 | J (jerky-unc) worm count [4]: 3 and 4 | NP (no phene) worm count [4]: 0 | Fraction Coiled, Averages of 3 biological repeats (unc-17 (e245), 30 µM, 60 min): 0.87 | Fraction Jerky-Unc, Averages of 3 biological repeats (unc-17 (e245), 30 µM, 60 min): 0.0741 | Fraction No Phenotype, Averages of 3 biological repeats (unc-17 (e245), 30 µM, 60 min): 0.00 | Fraction Parayzed, Averages of 3 biological repeats (unc-17 (e245), 30 µM, 60 min): 0.0556 | C1 (loose coil) worm count [5]: 2 and 1 | C2 (tight coil) worm count [5]: 14 and 15 and 13 | Fraction Coiled [5]: 0.83 and 0.89 | Fraction No Phenotype [5]: 0.00 | NP (no phene) worm count [5]: 0 | Fraction Coiled, Averages of 3 biological repeats (unc-17 (e245), 60 µM, 60 min): 0.76 | Fraction Jerky-Unc, Averages of 3 biological repeats (unc-17 (e245), 60 µM, 60 min): 0.037 | Fraction No Phenotype, Averages of 3 biological repeats (unc-17 (e245), 60 µM, 60 min): 0.00 | Fraction Parayzed, Averages of 3 biological repeats (unc-17 (e245), 60 µM, 60 min): 0.20 | C1 (loose coil) worm count [6]: 4 and 2 | C2 (tight coil) worm count [6]: 12 and 8 and 11 | Fraction Coiled [6]: 0.83 and 0.89 and 0.56 | Fraction No Phenotype [6]: 0.00 | NP (no phene) worm count [6]: 0 | Fraction Coiled, Averages of 3 biological repeats (unc-17 (e327), 15 µM, 60 min): 0.77 | Fraction Jerky-Unc, Averages of 3 biological repeats (unc-17 (e327), 15 µM, 60 min): 0.15 | Fraction No Phenotype, Averages of 3 biological repeats (unc-17 (e327), 15 µM, 60 min): 0.00 | Fraction Parayzed, Averages of 3 biological repeats (unc-17 (e327), 15 µM, 60 min): 0.08 | C1 (loose coil) worm count [7]: 3 and 4 | C2 (tight coil) worm count [7]: 10 and 12 and 8 | Fraction Coiled [7]: 0.75 and 0.72 and 0.83 | Fraction Jerky-Unc [7]: 0.125 and 0.1667 | Fraction No Phenotype [7]: 0.00 | J (jerky-unc) worm count [7]: 3 and 2 | NP (no phene) worm count [7]: 0 | Fraction Coiled, Averages of 3 biological repeats (unc-17 (e327), 30 µM, 60 min): 0.66 | Fraction Jerky-Unc, Averages of 3 biological repeats (unc-17 (e327), 30 µM, 60 min): 0.12 | Fraction No Phenotype, Averages of 3 biological repeats (unc-17 (e327), 30 µM, 60 min): 0.00 | Fraction Parayzed, Averages of 3 biological repeats (unc-17 (e327), 30 µM, 60 min): 0.23 | C1 (loose coil) worm count [8]: 2 and 4 | C2 (tight coil) worm count [8]: 8 and 9 and 7 | Fraction Coiled [8]: 0.69 and 0.56 and 0.72 | Fraction No Phenotype [8]: 0.00 | NP (no phene) worm count [8]: 0 | Fraction Coiled, Averages of 3 biological repeats (unc-17 (e327), 60 µM, 60 min): 0.48 | Fraction Jerky-Unc, Averages of 3 biological repeats (unc-17 (e327), 60 µM, 60 min): 0.037 | Fraction No Phenotype, Averages of 3 biological repeats (unc-17 (e327), 60 µM, 60 min): 0.00 | Fraction Parayzed, Averages of 3 biological repeats (unc-17 (e327), 60 µM, 60 min): 0.48 | C1 (loose coil) worm count [9]: 4 and 3 and 2 | Fraction No Phenotype [9]: 0.00 | NP (no phene) worm count [9]: 0 | P (paralyzed) worm count [9]: 8 and 6 and 12 | Fraction Coiled [10]: 0.81 | Fraction Jerky-Unc [10]: 0.09 | Fraction No Phenotype [10]: 0.00 | Fraction Parayzed [10]: 0.09 | Fraction Coiled [11]: 0.74 | Fraction Jerky-Unc [11]: 0.24 | Fraction No Phenotype [11]: 0.00 | Fraction Parayzed [11]: 0.0185 | Fraction Coiled [12]: 0.83 | Fraction Jerky-Unc [12]: 0.0556 | Fraction No Phenotype [12]: 0.00 | Fraction Parayzed [12]: 0.11 | Fraction Coiled [13]: 0.63 | Fraction Jerky-Unc [13]: 0.0556 | Fraction No Phenotype [13]: 0.00 | Fraction Parayzed [13]: 0.31 | Fraction Coiled [14]: 0.19 | Fraction Jerky-Unc [14]: 0.60 | Fraction No Phenotype [14]: 0.21 | Fraction Parayzed [14]: 0.00 | Fraction Coiled [15]: 0.44 | Fraction Jerky-Unc [15]: 0.47
